Laboratory results taken from patent US6110955A, “Metabolically stabilized oxyalkylene esters and uses thereof” (Beacon Laboratories, Inc., priority 1997, dated 2000).
Entries after “also recorded” stand apart in the source; their conditions may differ.

Tests used:
SK-N-MC = assay: Clonogenicity in soft agar (growth inhibition); assay type: cell-based, human
Protocol: (§1) Inhibition of cancer cell growth in agar culture--clonogenicity was tested using cell lines as follows:
(§2) Cells were harvested, washed in complete media, and counted.
(§3) After overnight culture, AB or α-methyl-4-(2-methylpropyl)-benzeneacetyloxymethyl butyrate was added at the indicated concentration. The control cells received media alone.

SK-N-SH = assay: Clonogenicity in soft agar (growth inhibition); assay type: cell-based, human
Protocol: as §1, §2, §3

NBL-W-N = assay: Clonogenicity in soft agar (growth inhibition); assay type: cell-based, human
Protocol: as §1, §2, §3

LA1-5S = assay: Clonogenicity in soft agar (growth inhibition); assay type: cell-based, human
Protocol: as §1, §2, §3

NGP = assay: Clonogenicity in soft agar (growth inhibition); assay type: cell-based, human
Protocol: as §1, §2, §3

NBAS-5 = assay: Clonogenicity in soft agar (growth inhibition); assay type: cell-based, human
Protocol: as §1, §2, §3

IMR-32 = assay: Clonogenicity in soft agar (growth inhibition); assay type: cell-based, human
Protocol: as §1, §2, §3

NBL-S = assay: Clonogenicity in soft agar (growth inhibition); assay type: cell-based, human
Protocol: as §1, §2, §3

SMS-KAN = assay: Clonogenicity in soft agar (growth inhibition); assay type: cell-based, human
Protocol: as §1, §2, §3

SMS-KCN = assay: Clonogenicity in soft agar (growth inhibition); assay type: cell-based, human
Protocol: as §1, §2, §3

[1] = In vitro stability in human blood; assay type: in vitro ADME; conditions: whole human blood, radiolabelled, read-out: calculated half time
Protocol: Radiolabelled Compound 1 (5 μCi) was added to 1 mL of whole human blood and allowed to stand for various times. The samples were quenched with acetonitrile and prepared as previously described.

OVCAR-5 = assay: Inhibition of cancer cell growth, sulforhodamine B (SRB) method; assay type: cell-based; conditions: Homo sapiens
Protocol: (§4) Inhibition of cancer cell growth was measured by the sulforhodamine B (SRB) method as described by Monks et al., J. Nat. Canc. Inst., (1991), 83: 757-766, incorporated herein in its entirety. The SRB assay is recognized by the National Institute for Cancer (NCI) as a reliable screen for anticancer drugs and is used by the NCI for this purpose. […] (FIGS. 3A-3D).

LOX IMVI = assay: as above; assay type: cell-based; conditions: Homo sapiens
Protocol: as §4

MCF7 = assay: as above; assay type: cell-based; conditions: Homo sapiens
Protocol: as §4

CFPAC = assay: as above; assay type: cell-based; conditions: Homo sapiens
Protocol: as §4

[2] = test system: human pancreatic, ovarian, breast carcinoma and melanoma cell lines; assay: Inhibition of cancer cell growth, SRB method (summary over cell lines); assay type: cell-based; conditions: compared with AB
Protocol: as §4

[3] = test system: human neuroblastoma cell lines; assay: Clonogenicity across the neuroblastoma cell lines (summary); assay type: cell-based
Protocol: as §1, §2, §3

[4] = test system: human colon carcinoma, leukemia and retinoblastoma cell lines; conditions: in vitro; cited from earlier work

For CCCC(=O)OCOC(=O)C(C)c1ccc(CC(C)C)cc1 (stereo not drawn) [Compound 1, α-methyl-4-(2-methylpropyl)-benzeneacetyloxymethyl butyrate], the “AB/Compound 1 (IC50 ratio)” value (SK-N-MC) was 9, the “AB/Compound 1 (IC90 ratio)” value (SK-N-MC) was 887 and the IC50 (SK-N-MC; Homo sapiens) was 24 µM. For the same molecule, the IC90 (SK-N-MC; Homo sapiens) was 148 µM, the “AB/Compound 1 (IC50 ratio)” value (SK-N-SH) was 63.37 and the “AB/Compound 1 (IC90 ratio)” value (SK-N-SH) was 87. The IC50 (SK-N-SH; Homo sapiens) was 16 µM, the IC90 (SK-N-SH; Homo sapiens) was 39 µM and the activity at 10 µM (SK-N-SH; Homo sapiens, 10 μM, read-out: clones relative to media-treated control cultures) was 66%. The activity at 20 µM (SK-N-SH; Homo sapiens, 20 μM, read-out: clones relative to media-treated control cultures) was 50%, the activity at 50 µM (SK-N-SH; Homo sapiens, 50 μM, read-out: clones relative to media-treated control cultures) was 5% and the activity at 100 µM (SK-N-SH; Homo sapiens, 100 μM, read-out: clones relative to media-treated control cultures) was 1%. The activity at 250 µM (SK-N-SH; Homo sapiens, 250 μM, read-out: clones relative to media-treated control cultures) was 0%, the “AB/Compound 1 (IC50 ratio)” value (NBL-W-N) was 10.6 and the “AB/Compound 1 (IC90 ratio)” value (NBL-W-N) was 22.9. For the same molecule, the IC50 (NBL-W-N; Homo sapiens) was 46 µM, the IC90 (NBL-W-N; Homo sapiens) was 134 µM and the “AB/Compound 1 (IC50 ratio)” value (LA1-5S) was 56. For the same molecule, the “AB/Compound 1 (IC90 ratio)” value (LA1-5S) was 31.8, the IC50 (LA1-5S; Homo sapiens) was 29 µM and the IC90 (LA1-5S; Homo sapiens) was 84 µM. For the same molecule, the “AB/Compound 1 (IC50 ratio)” value (NGP) was 67.9, the “AB/Compound 1 (IC90 ratio)” value (NGP) was 18.46 and the IC50 (NGP; Homo sapiens) was 15 µM. It also gave an IC90 (NGP; Homo sapiens) of 87 µM, an IC50 (NBAS-5; Homo sapiens, NBAS-5) of 15 µM and an IC90 (NBAS-5; Homo sapiens, NBAS-5) of 30 µM. For the same molecule, the activity at 10 µM (NBAS-5; Homo sapiens, NBAS-5, 10 μM, read-out: clones relative to media-treated control cultures) was 76 ± 7%, the activity at 20 µM (NBAS-5; Homo sapiens, NBAS-5, 20 μM, read-out: clones relative to media-treated control cultures) was 27 ± 15% and the activity at 50 µM (NBAS-5; Homo sapiens, NBAS-5, 50 μM, read-out: clones relative to media-treated control cultures) was 3%. For the same molecule, the activity at 100 µM (NBAS-5; Homo sapiens, NBAS-5, 100 μM, read-out: clones relative to media-treated control cultures) was 0%, the activity at 250 µM (NBAS-5; Homo sapiens, NBAS-5, 250 μM, read-out: clones relative to media-treated control cultures) was 0% and the “AB/Compound 1 (IC50 ratio)” value (NBAS-5; NBAS-5) was 55.53. For the same molecule, the “AB/Compound 1 (IC90 ratio)” value (NBAS-5; NBAS-5) was 434, the IC50 (IMR-32; Homo sapiens, IMR-32) was 15 µM and the IC90 (IMR-32; Homo sapiens, IMR-32) was 32 µM. The activity at 10 µM (IMR-32; Homo sapiens, IMR-32, 10 μM, read-out: clones relative to media-treated control cultures) was 71 ± 10%, the activity at 20 µM (IMR-32; Homo sapiens, IMR-32, 20 μM, read-out: clones relative to media-treated control cultures) was 46 ± 8% and the activity at 50 µM (IMR-32; Homo sapiens, IMR-32, 50 μM, read-out: clones relative to media-treated control cultures) was 3 ± 1%. The activity at 100 µM (IMR-32; Homo sapiens, IMR-32, 100 μM, read-out: clones relative to media-treated control cultures) was 0%, the activity at 250 µM (IMR-32; Homo sapiens, IMR-32, 250 μM, read-out: clones relative to media-treated control cultures) was 0% and the “AB/Compound 1 (IC50 ratio)” value (IMR-32; IMR-32) was 59. The “AB/Compound 1 (IC90 ratio)” value (IMR-32; IMR-32) was 111437, the “AB/Compound 1 (IC50 ratio)” value (NBL-S) was 29.2 and the “AB/Compound 1 (IC90 ratio)” value (NBL-S) was 32.8. The IC50 (NBL-S; Homo sapiens) was 24 µM, the IC90 (NBL-S; Homo sapiens) was 61 µM and the “AB/Compound 1 (IC50 ratio)” value (SMS-KAN) was 14.7. For the same molecule, the “AB/Compound 1 (IC90 ratio)” value (SMS-KAN) was 7.2, the IC50 (SMS-KAN; Homo sapiens) was 77 µM and the IC90 (SMS-KAN; Homo sapiens) was 289 µM. For the same molecule, the “AB/Compound 1 (IC50 ratio)” value (SMS-KCN) was 15.86, the IC50 (SMS-KCN; Homo sapiens) was 118 µM and the half-life [1] was ~20.8 min. The inhibition at 31.25 pM (OVCAR-5; OVCAR-5, dosage 0.03125 nM) was 0%, the inhibition at 62.5 pM (OVCAR-5; OVCAR-5, dosage 0.06250 nM) was 0.3% and the inhibition at 0.000125 µM (OVCAR-5; OVCAR-5, dosage 0.12500 nM) was 0.5%. It also gave an inhibition at 0.00025 µM (OVCAR-5; OVCAR-5, dosage 0.25000 nM) of 0%, an inhibition at 0.0005 µM (OVCAR-5; OVCAR-5, dosage 0.50000 nM) of 0.9% and an inhibition at 0.001 µM (OVCAR-5; OVCAR-5, dosage 1.00000 nM) of 39.7%. For the same molecule, the inhibition at 0.002 µM (OVCAR-5; OVCAR-5, dosage 2.00000 nM) was 99.8%, the inhibition at 0.004 µM (OVCAR-5; OVCAR-5, dosage 4.00000 nM) was 95.1% and the inhibition at 31.25 pM (LOX IMVI; dosage 0.03125 nM) was 0%. For the same molecule, the inhibition at 62.5 pM (LOX IMVI; dosage 0.06250 nM) was 0.1%, the inhibition at 0.000125 µM (LOX IMVI; dosage 0.12500 nM) was 1.5% and the inhibition at 0.00025 µM (LOX IMVI; dosage 0.25000 nM) was 0%. It also gave an inhibition at 0.001 µM (LOX IMVI; dosage 1.00000 nM) of 94.9%, an inhibition at 0.002 µM (LOX IMVI; dosage 2.00000 nM) of 96% and an inhibition at 0.004 µM (LOX IMVI; dosage 4.00000 nM) of 97.4%. It also gave an inhibition at 31.25 pM (MCF7; MCF7, dosage 0.03125 nM) of 0%, an inhibition at 62.5 pM (MCF7; MCF7, dosage 0.06250 nM) of 0% and an inhibition at 0.000125 µM (MCF7; MCF7, dosage 0.12500 nM) of 0%. The inhibition at 0.00025 µM (MCF7; MCF7, dosage 0.25000 nM) was 1.1%, the inhibition at 0.0005 µM (MCF7; MCF7, dosage 0.50000 nM) was 57.8% and the inhibition at 0.001 µM (MCF7; MCF7, dosage 1.00000 nM) was 99.3%. For the same molecule, the inhibition at 0.002 µM (MCF7; MCF7, dosage 2.00000 nM) was 98.9%, the inhibition at 0.004 µM (MCF7; MCF7, dosage 4.00000 nM) was 98.7% and the inhibition at 31.25 pM (CFPAC; dosage 0.03125 nM) was 0%. The inhibition at 62.5 pM (CFPAC; dosage 0.06250 nM) was 0.1%, the inhibition at 0.000125 µM (CFPAC; dosage 0.12500 nM) was 1.1% and the inhibition at 0.00025 µM (CFPAC; dosage 0.25000 nM) was 0%. The inhibition at 0.0005 µM (CFPAC; dosage 0.50000 nM) was 93.3%, the inhibition at 0.001 µM (CFPAC; dosage 1.00000 nM) was 94.9% and the inhibition at 0.002 µM (CFPAC; dosage 2.00000 nM) was 96%. For the same molecule, the inhibition at 0.004 µM (CFPAC; dosage 4.00000 nM) was 97.4%, the “greater activity than that of AB” value [2] was “at least 100 fold” and the “inhibition of clonogenicity (in words)” value [3] was “dose-dependent manner”. For the same molecule, the “sensitivity / potency relative to AB (in words)” value ([3]; compared with AB) was “mostly an order of magnitude more sensitive; also recorded: significantly more potent tumor cell clonogenicity inhibitor than AB”, the “ratio between the IC50 of AB/Compound 1, "maiden" value” ([3]; over the cell lines) was 16 and the “ratio between the IC50 of AB/Compound 1, range” value ([3]; over the cell lines) was 7-63 fold. The “ratio between the IC90 of AB/Compound 1, "maiden" value” ([3]; over the cell lines) was 32 and the “ratio between the IC90 of AB/Compound 1, range” value ([3]; over the cell lines) was 7-434.

In the case of CCCC(=O)[O-].[Na+] [SB, sodium butyrate], the apoptosis [4] is listed as “produce apoptosis in vitro in human colon carcinoma, leukemia and retinoblastoma cell lines”.
